Reference: the supplement of paper PMC4932681
Values joined by “and” are separate entries in the source; they are usually repeats but may differ in a detail not shown here. Equal entries are not always repeated.

Tests used:
Assay in all cases: viability inhibition at highest dose (% inhibition); higher = more growth inhibition
ZR-75-1 Tam2 = conditions: 4-OH-tamoxifen in medium 1 µM; 72 h
Description: (§1)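 Percent inhibition of viability (CellTiter-Glo, 72 h) at the highest tested concentration (D5), normalised to DMSO (0%) and 100 µM benzethonium chloride (100%). Resistant lines and the 'in 1µM tamoxifen' arms were tested in 1 µM 4-OH-tamoxifen.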

MCF-7 Tam1 = conditions: 4-OH-tamoxifen in medium 1 µM; 72 h
Description: as §1

MCF-7 = conditions: 72 h
Description: as §1

ZR-75-1 Tam1 = conditions: 4-OH-tamoxifen in medium 1 µM; 72 h
Description: as §1

ZR-75-1 = conditions: 72 h
Description: as §1

BT-474 Tam1 = conditions: 4-OH-tamoxifen in medium 1 µM; 72 h
Description: as §1

BT-474 Tam2 = conditions: 4-OH-tamoxifen in medium 1 µM; 72 h
Description: as §1

BT-474 = conditions: 72 h
Description: as §1

T-47D Tam2 = conditions: 4-OH-tamoxifen in medium 1 µM; 72 h
Description: as §1

T-47D = conditions: 72 h
Description: as §1

T-47D Tam1 = conditions: 4-OH-tamoxifen in medium 1 µM; 72 h
Description: as §1

SMILES | viability inhibition at highest dose (ZR-75-1 Tam2) | viability inhibition at highest dose (MCF-7 Tam1) | viability inhibition at highest dose (MCF-7; 4-OH-tamoxifen in medium 0 µM) | viability inhibition at highest dose (MCF-7; 4-OH-tamoxifen in medium 1 µM) | viability inhibition at highest dose (ZR-75-1 Tam1) | viability inhibition at highest dose (ZR-75-1; 4-OH-tamoxifen in medium 0 µM) | viability inhibition at highest dose (ZR-75-1; 4-OH-tamoxifen in medium 1 µM) | viability inhibition at highest dose (BT-474 Tam1) | viability inhibition at highest dose (BT-474 Tam2) | viability inhibition at highest dose (BT-474; 4-OH-tamoxifen in medium 0 µM) | viability inhibition at highest dose (BT-474; 4-OH-tamoxifen in medium 1 µM) | viability inhibition at highest dose (T-47D Tam2) | viability inhibition at highest dose (T-47D; 4-OH-tamoxifen in medium 0 µM) | viability inhibition at highest dose (T-47D; 4-OH-tamoxifen in medium 1 µM) | viability inhibition at highest dose (T-47D Tam1)
Cc1ccc(NC(=O)c2ccc(CN3CCN(C)CC3)cc2)cc1Nc1nccc(-c2cccnc2)n1 [Imatinib] (drug 10000 nM) | 8.38 | 4.63 | -13.1 | 11.1 | 7.91 | 0.33 | 17.8 | 49.1 | 27.2 | -0.39 | 23.3 | 20.5 | 10.4 | 5.9 | 3.96
O=C(O)CCCc1ccc(N(CCCl)CCCl)cc1 [Chlorambucil] (drug 10000 nM) | -11.1 | -8.39 | 2.18 | -4.5 | 3.96 | -4.67 | -2.49 | -1.33 | -11.1 | -5.56 | -5.81 | 9.69 | -20.9 | 1.91 | -7.66
CN(N=O)C(=O)N[C@@H](C=O)[C@@H](O)[C@H](O)[C@H](O)CO [Streptozocin] (drug 10000 nM) | -12.2 | -3.41 | -9.93 | -7.59 | 1.17 | -9.82 | 2.7 | -7.72 | -7.21 | -7.13 | 3.07 | 9.65 | -10.8 | -3.95 | -3.33
Cc1cc(Nc2cc(CN3CCOCC3)c3nc(C)c(Cc4ccc(Cl)cc4F)n3n2)n[nH]1 (drug 10000 nM) | 16.8 | 47.8 | 66.7 | 68 | -2.02 | -23.2 | 0.926 | 96.7 | 96.4 | 5.76 | 66.4 | 46.2 | 21.2 | 24.4 | 45.6
Cc1nc(Nc2ncc(C(=O)Nc3c(C)cccc3Cl)s2)cc(N2CCN(CCO)CC2)n1 [Dasatinib] (drug 1000 nM) | -36.2 and -32.2 | – | – | 12.7 and 8.15 | -34.5 and -23.8 | -61.6 and -72.5 | -39.5 and -41.9 | 37.1 and 33.4 | – | – | 1.98 and 3.29 | 35.6 and 31.4 | – | 30.8 and 16.6 | 35.9 and 30.8
Cc1ccc(C(=O)Nc2ccc(CN3CCN(C)CC3)c(C(F)(F)F)c2)cc1C#Cc1cnc2cccnn12 (drug 1000 nM) | 12 | 12.7 | 11.5 | 25.9 | 12.3 | 3.08 | 12 | 35.9 | 6 | -2.54 | 36.2 | 37.9 | 20.5 | 33.7 | 70.1
CC1(C)NC(=O)N(c2ccc([N+](=O)[O-])c(C(F)(F)F)c2)C1=O [Nilutamide] (drug 10000 nM) | 4.62 | -1.08 | -15.4 | 15.9 | 2.7 | -16.5 | -4.81 | -0.747 | 10.7 | -2.3 | -13.3 | 6 | -3.55 | -11.8 | 0.496
CC[C@H](CO)Nc1nc(NCc2ccccc2)c2ncn(C(C)C)c2n1 [Seliciclib (Roscovitine)] (drug 10000 nM) | -4.53 | 13.8 | 29 | 17.2 | -5.94 | -12.8 | -9.91 | -2.39 | 3.77 | -9.62 | -8.52 | 23.6 | -4.76 | -17.1 | 24.8
COc1nc(N)nc2c1ncn2[C@@H]1O[C@H](CO)[C@@H](O)[C@@H]1O [Nelarabine] (drug 10000 nM) | 2.19 | 4.67 | 13.2 | -6.84 | 1.44 | 11.1 | 4.17 | 0.136 | -6.72 | -2.92 | 16.3 | -4.97 | 1.79 | 6.8 | -2.1
COCC[n+]1c2c(n(Cc3cnccn3)c1C)C(=O)c1ccccc1C2=O [YM155] (drug 10000 nM) | 95.8 | 98.9 | 99.8 | 99.1 | 99.6 | 96 | 98 | 99.4 | 98.6 | 99 | 100 | 94.1 | 98.1 | 98.6 | 96.1
Cc1cc2c(F)c(Oc3ncnn4cc(OC[C@@H](C)O)c(C)c34)ccc2[nH]1 [Brivanib] (drug 1000 nM) | 3.72 | -13 | -12.6 | -7.3 | -6.33 | -7.74 | -7.64 | 6.47 | 7.57 | -13 | -17.5 | -3.24 | -14.5 | -3.49 | 2.73
Cc1ccc(-n2nc(C(C)(C)C)cc2NC(=O)Nc2ccc(OCCN3CCOCC3)c3ccccc23)cc1 [Doramapimod (BIRB 796)] (drug 10000 nM) | 2.11 | 9.34 | 17.6 | 19.3 | 1.82 | -1.07 | 0.647 | 21 | -5.97 | 3.99 | 15 | 17 | 6.71 | -2.59 | -1.73
Cc1c2oc3c(C)ccc(C(=O)N[C@@H]4C(=O)N[C@H](C(C)C)C(=O)N5CCC[C@H]5C(=O)N(C)CC(=O)N(C)[C@@H](C(C)C)C(=O)O[C@@H]4C)c3nc-2c(C(=O)N[C@@H]2C(=O)N[C@H](C(C)C)C(=O)N3CCC[C@H]3C(=O)N(C)CC(=O)N(C)[C@@H](C(C)C)C(=O)O[C@@H]2C)c(N)c1=O [Dactinomycin] (drug 1000 nM) | 60.9 | 61.6 | 74.5 | 72.2 | 55.6 | 45.4 | 53.8 | 95.6 | 88.4 | 36.7 | 81.9 | 62.7 | 49.2 | 31.5 | 63.4
